Test results taken from US20230322756A1, “FUSED IMIDAZOLE DERIVATIVE, PREPARATION METHOD THEREFOR, AND MEDICAL USE THEREOF” (JIANGSU HENGRUI MEDICINE CO., LTD., priority 2020, published 2023).

Key:
[1] = Pharmacokinetic evaluation in mice; assay type: in vivo, C57 mice; details: for AUC(0-t) / half-life / Vd/F / CL/F / Cmax: female, C57, mouse, plasma; for AUC(0-t): read-out: Area under curve AUC0-t; for half-life: read-out: Half-life T½ (converted); for Vd/F: read-out: Apparent distribution volume Vz/F; for CL/F: read-out: Clearance CLz/F; for Cmax: read-out: Plasma concentration Cmax
Description: The drug concentrations in the plasma of the test animals (mice) at different time points after intragastric (ig) administration/intravenous (iv) injection of the compounds of the present disclosure were determined by an LC/MS/MS method. The pharmacokinetic behavior of the compound of the present disclosure in mice was studied and its pharmacokinetic profile was evaluated.
Thirty-six C57 mice, female, evenly divided into 4 groups, purchased from Beijing Vital River Laboratory Animal Technology Co., Ltd., with animal production license number: SCXK (Shanghai) 2017-0005.
Intragastric administration: the drugs were intragastrically administered to mice at a dose of 2.0 mg/kg and a volume of 20.0 mL/kg.
Intravenous injection administration: the drugs were administered to mice by intravenous injection at a dose of 1.0 mg/kg and a volume of 10.0 mL/kg.
The blood was placed in an EDTA-K2 anticoagulation tube and centrifuged at 10,000 rpm for 1 min (4° C.), and plasma was separated out within 1 h and then stored at −80° C. before being tested. The process from blood collection to centrifugation was performed under an ice bath.
(§1) The content of the test compounds at different concentrations in plasma of mice after the administration was determined: 25 μL of plasma of mice at each time point after the administration was mixed with 200 μL of acetonitrile (containing 50 μL of a solution of internal standard camptothecin (100 ng/mL)); the mixture was vortexed for 1 min, and centrifuged for 10 min (4000 r/min), and 0.5 μL of supernatant was taken for LC/MS/MS analysis.

[2] = Pharmacokinetic evaluation in dogs; assay type: in vivo; details: beagle dogs; for Vd/F / AUC(0-t) / CL/F / half-life / Cmax: male, dog, plasma; for Vd/F: read-out: Apparent distribution volume Vz/F; for AUC(0-t): read-out: Area under curve AUC0-t; for CL/F: read-out: Clearance CLz/F; for half-life: read-out: Half-life T½ (converted); for Cmax: read-out: Plasma concentration Cmax
Description: Dogs are the test animals. The drug concentrations in the plasma of dogs at different time points after intragastric (ig) administration/intravenous (iv) injection of the compounds of the present disclosure were determined by an LC/MS/MS method. The pharmacokinetic performance in beagles of the compounds of the present disclosure was studied and the pharmacokinetic profile thereof was evaluated.
Twelve beagle dogs, males, evenly divided into 4 groups, provided by the animal reserve bank (999M-004) of Shanghai Medicilon Inc. All animals were beagle dogs qualified for physical examination and healthy without abnormalities.
Intragastric administration: the dose was 2 mg/kg and the volume was 50.0 mL/kg.
Intravenous injection administration: the dose was 0.5 mg/kg and the volume was 20.0 mL/kg.
The blood was placed in an EDTA-K2 anticoagulation tube and centrifuged at 10,000 rpm for 5 min (4° C.), and plasma was separated out within 1 h and then stored at −80° C. before being tested. Food intake was resumed 3 h after administration.
The process from blood collection to centrifugation was performed under an ice bath.
as §1, with “of beagle dogs” for “of mice”, “determined: 10” for “determined: 25”, “(containing” for “(containing 50 μL of”, “for 7” for “for 10”, “min (18,000” for “min (4000”, “and 6” for “and 0.5”

CYP2C19 = CYP2C19 (Homo sapiens (Human), UniProt P33261); test: Time-dependent inhibition (TDI) of CYP2C19 (S)-mephenytoin site of metabolism in human liver microsomes; assay type: in vitro ADME; details: for IC50: (S)-mephenytoin
Sequence of CYP2C19 (P33261 whole entry): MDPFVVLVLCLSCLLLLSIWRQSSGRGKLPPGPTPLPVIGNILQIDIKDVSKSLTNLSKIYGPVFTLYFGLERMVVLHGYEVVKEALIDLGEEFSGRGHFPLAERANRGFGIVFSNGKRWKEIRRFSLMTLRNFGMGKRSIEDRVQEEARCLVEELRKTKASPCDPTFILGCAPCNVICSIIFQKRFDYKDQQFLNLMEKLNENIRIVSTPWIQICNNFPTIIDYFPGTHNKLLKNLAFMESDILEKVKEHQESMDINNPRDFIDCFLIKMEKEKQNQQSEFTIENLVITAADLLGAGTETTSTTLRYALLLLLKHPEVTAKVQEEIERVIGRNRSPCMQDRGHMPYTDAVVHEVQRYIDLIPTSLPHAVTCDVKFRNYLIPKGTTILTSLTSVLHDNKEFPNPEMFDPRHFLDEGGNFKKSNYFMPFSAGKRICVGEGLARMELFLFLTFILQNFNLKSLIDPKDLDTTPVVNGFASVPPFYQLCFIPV
Description: I. Materials and Instruments • 1. Phosphate buffered saline (20×PBS, purchased from Sangon); • 2. NADPH (ACROS, A2646-71-1); • 3. Human liver microsome (Corning Gentest, Cat No. 452161, Lot No. 905002, Donor36); • 4. ABI QTrap 4000 LC-MS System (AB Sciex); • 5. ZORBAX Extend-C18, 3×50 mm, 3.5 μm (Agilent, USA); • 6. CYP probe substrate ((S)-mephenytoin/20 μM, powder purchased from J&K Scientific Ltd., Cat No. 303768) and positive control inhibitor (ticlopidine, powder purchased from SIGMA, Cat No. T6654-1G).
A 100 mM PBS buffer was prepared. A 15 mM MgCl2 solution and a 10 mM NADPH solution were prepared using the buffer. A 0.5 mg/mL microsome solution was prepared using the 15 mM MgCl2 solution. A 30 mM stock solution was diluted with DMSO to a series of solutions I with concentrations of 30 mM, 10 mM, 3 mM, 1 mM, 0.3 mM, 0.1 mM, 0.03 mM and 0 mM, which were then 10-fold diluted with acetonitrile (ACN) and finally 50-fold diluted with phosphate-buffered solution (PBS) to obtain a series of test working solutions II (60 μM, 20 μM, 6 μM, 2 μM, 0.6 μM, 0.2 μM, 0.06 μM and 0 μM). A 20 μM working solution of (S)-mephenytoin was prepared by dilution with PBS.
The above prepared series of working solutions were well shaken and divided into 50 μL aliquots in corresponding reaction plates (+NADPH group and −NADPH group were set) in triplicate. 20 μL of the liver microsome working solution was added to each 96-well plate. 10 μL of NADPH was added to +NADPH group. The plates were incubated in a water bath at 37° C., and a timer was set on the incubation. After 30 min of incubation, the plates were taken out, and +NADPH group was supplemented with 20 μL of corresponding substrate solutions and −NADPH group with 20 μL of corresponding substrate solutions and 10 μL of NADPH. The plates were incubated in a water bath at 37° C., and a timer was set on the incubation. After 30 min of incubation, the plates were taken out, and the reactions were terminated with 250 μL of an ACN solution containing an internal standard. The plates were shaken on a shaker at 800 rpm for 10 min and centrifuged on a centrifuge at 4000 rpm for 15 min. 100 μL of supernatant and 80 μL of ultrapure water were well mixed and subjected to LC-MS/MS analysis.

[3] = po, intragastric administration, 2 mg/kg
[4] = intravenous injection, 0.5 mg/kg
[5] = 30 min pre-incubation with NADPH
[6] = 30 min pre-incubation without NADPH

AUC(0-t) ([1]; intravenous injection, 1 mg/kg) [ng·h/mL] | half-life ([1]; intravenous injection, 1 mg/kg) [h] | Vd/F [1, 3] [L/kg] | AUC(0-t) [1, 3] [ng·h/mL] | CL/F [1, 3] [mL/min/kg] | half-life [1, 3] [h] | Cmax [1, 3] [ng/mL] | Apparent distribution volume Vz/F ([1]; intravenous injection, 1 mg/kg) [L/kg] | Clearance CLz/F ([1]; intravenous injection, 1 mg/kg) [mL/min/kg] | Apparent distribution volume Vz/F [2, 4] [L/kg] | Clearance CLz/F [2, 4] [mL/min/kg] | Vd/F [2, 3] [L/kg] | AUC(0-t) [2, 3] [ng·h/mL] | CL/F [2, 3] [mL/min/kg] | half-life [2, 3] [h] | Cmax [2, 3] [ng/mL] | AUC(0-t) [2, 4] [ng·h/mL] | half-life [2, 4] [h] | Cmax [2, 4] [ng/mL] | IC50 (CYP2C19; [5]) [µM] | SMILES | further results
2190 | 1.5 | 5.76 | 1440 | 23.1 | 2.9 | 359 | 0.981 | 7.55 | 0.448 | 1.8 | 0.636 | 22100 | 1.7 | 4.9 | 4430 | 4830 | 3 | 1740 | – | O=C(O)c1ccc2nc(CN3CCC(c4cccc5c4O[C@@H](c4ccc(Cl)cc4F)CO5)CC3)n(C[C@@H]3CCO3)c2n1 [Example 5, 2-((4-((S)-3-(4-Chloro-2-fluorophenyl)-2,3-dihydrobenzo[b][1,4]dioxan-5-yl)piperidin-1-yl)methyl)-3-((S)-oxetan-2-ylmethyl)-3H-imidazo[4,5-b]pyridine-5-carboxylic acid] | –
1870 | 1.3 | 4.01 | 2250 | 14.8 | 3.1 | 797 | 1.014 | 8.9 | 0.908 | 1.9 | 0.713 | 21400 | 1.6 | 5.3 | 4040 | 4010 | 5.4 | 1220 | > 30 | O=C(O)c1ccc2nc(CN3CCC(c4cccc5c4O[C@@H](c4ccc(Cl)cc4F)CO5)CC3)n(C[C@@H]3CCO3)c2c1 [Example 4, 2-((4-((S)-3-(4-Chloro-2-fluorophenyl)-2,3-dihydrobenzo[b][1,4]dioxan-5-yl)piperidin-1-yl)methyl)-1-(((S)-oxetan-2-yl)methyl)-1H-benzo[d]imidazole-6-carboxylic acid] | IC50 (CYP2C19; [6]): > 30 µM
– | – | – | – | – | – | – | – | – | – | – | – | – | – | – | – | – | – | – | 2.6 | C[C@]1(c2ccc(Cl)cc2F)Oc2cccc(C3CCN(Cc4nc5ccc(C(=O)O)cc5n4C[C@@H]4CCO4)CC3)c2O1 [Positive compound 1, reference compound] | IC50 (CYP2C19; [6]): 6.4 µM; IC50 shift at 30 min (CYP2C19; probe (S)-mephenytoin, CYP2C19 (S)-mephenytoin site, read-out: IC50 shift fold): 2.5
